Assay results published in US20230293526A1, “METHOD FOR TREATING CANCER WITH A REVERSE TRANSCRIPTASE INHIBITOR” (PrimeFour Therapeutics, Inc., priority 2020, published 2023).

Test system: cancer cell lines
Experiment: Cancer cell proliferation activity of representative nucleosides, CellTiterGlo 72 h (Example 7, Tables 8 and 9)
Assay type: cell-based
Details: 72 h
Protocol: Dose response relationships on cell proliferation was assessed for representative nucleosides on cancer cell lines. Briefly, compound treatment of cells started one day after seeding with a final DMSO concentration of 0.1%, and was performed by nanodrop-dispensing using a Tecan Dispenser. 0.1% DMSO (solvent) and Staurosporine (10 μM) served as high control (100% viability) and low control (0% viability), respectively. Cells were cultured in the appropriate media. For the assays, cells were seeded in white cell culture-treated flat and clear bottom multiwell plates and incubated at 37° C. overnight before compound was added. After incubation for 72 h at 37° C. at 5% or 10% CO2 dependent on the medium, cell plates were equilibrated to room temperature for one hour, CellTiterGlo reagent (Promega) was added and luminescence was measured approximately an hour later using a luminometer.
Raw data were converted into percent cell viability relative to the high and low control, which were set to 100% and 0%, respectively.

C[C@]1(CO)O[C@@H](n2ccc(N)nc2=O)C[C@@H]1O [compound 30]
IC50 (72 h, 5637, bladder): 180 nM
IC50 (CLS439, bladder): 2650 nM
IC50 (HS729, muscle): 370 nM
IC50 (J82, bladder): 640 nM
IC50 (JAR, placenta): 5240 nM
IC50 (MT3, breast): 50 nM
IC50 (PC3, prostate): 150 nM
IC50 (RD, muscle): 790 nM
IC50 (T24, bladder): 80 nM
IC50 (Homo sapiens, 22Rv1, 72 h, 22RV1, prostate): 1350 nM
IC50 (Homo sapiens, 786-0, 72 h, 786O, kidney): 380 nM
IC50 (Homo sapiens, A204, 72 h, A204, muscle): 20 nM
IC50 (Homo sapiens, A549, 72 h, A549, lung): 320 nM
IC50 (Homo sapiens, A673, 72 h, A673, bone): 500 nM
IC50 (Homo sapiens, A2780, 72 h, A2780, ovary): 250 nM
IC50 (Homo sapiens, A-375, 72 h, A375, skin): 330 nM
IC50 (Homo sapiens, A-431, 72 h, A431, skin): 280 nM
IC50 (Homo sapiens, ACHN, kidney): 340 nM
IC50 (Homo sapiens, ASPC1, 72 h, ASPC1, pancreas): 130 nM
IC50 (Homo sapiens, BT-20, 72 h, BT20, breast): 670 nM
IC50 (Homo sapiens, BXPC-3, 72 h, BXPC3, pancreas): 130 nM
IC50 (Homo sapiens, C-33-A, C33A, endometrial): 190 nM
IC50 (Homo sapiens, CAKI-1, 72 h, CAKI1, kidney): 70 nM
IC50 (Homo sapiens, COLO 205, 72 h, COLO205, colon): 160 nM
IC50 (Homo sapiens, COLO-678, 72 h, COLO678, colon): 1710 nM
IC50 (Homo sapiens, Ca-Ski, CASKI, endometrial): 1280 nM
IC50 (Homo sapiens, Caco-2, 72 h, CACO2, colon): 2960 nM
IC50 (Homo sapiens, Calu-6, 72 h, CALU6, lung): 500 nM
IC50 (Homo sapiens, DLD-1, 72 h, DLD1, colon): 580 nM
IC50 (Homo sapiens, DU-145, 72 h, DU145, prostate): 280 nM
IC50 (Homo sapiens, EFO-21, 72 h, EFO21, ovary): 450 nM
IC50 (Homo sapiens, EJ-28, 72 h, EJ28, bladder): 1020 nM
IC50 (Homo sapiens, Granta-519, 72 h, GRANTA-519, hematological): 80 nM
IC50 (Homo sapiens, HCT-15, 72 h, HCT15, colon): 540 nM
IC50 (Homo sapiens, HCT-116, 72 h, HCT116, colon): 310 nM
IC50 (Homo sapiens, HEK293, 72 h, HEK293, kidney): 10900 nM
IC50 (Homo sapiens, HL-60, 72 h, HL-60, hematological): 360 nM
IC50 (Homo sapiens, HT-29, 72 h, HT29, colon): 410 nM
IC50 (Homo sapiens, HT-1080, 72 h, HT1080, connective tissue): 270 nM
IC50 (Homo sapiens, HeLa, endometrial): 330 nM
IC50 (Homo sapiens, HepG2, 72 h, HEPG2, liver): 1300 nM
IC50 (Homo sapiens, Hs-578T, HS578T, breast): 920 nM
IC50 (Homo sapiens, IGROV-1, 72 h, IGROV1, ovary): 520 nM
IC50 (Homo sapiens, IMR-90, 72 h, IMR90, lung): 2120 nM
IC50 (Homo sapiens, JEG-3, 72 h, JEG3, placenta): 1250 nM
IC50 (Homo sapiens, JIMT-1, 72 h, JIMT1, breast): 80 nM
IC50 (Homo sapiens, K562, 72 h, K-562, hematological): 1440 nM
IC50 (Homo sapiens, Kasumi 1, 72 h, KASUMI-1, hematological): 80 nM
IC50 (Homo sapiens, L-363, 72 h, L-363, hematological): > 50000 nM
IC50 (Homo sapiens, LoVo, colon): 340 nM
IC50 (Homo sapiens, MCF7, 72 h, MCF7, breast): 1960 nM
IC50 (Homo sapiens, MDA-MB-231, 72 h, MDAMB231, breast): 50 nM
IC50 (Homo sapiens, MDA-MB-435, 72 h, MDAMB435, skin): 820 nM
IC50 (Homo sapiens, MDA-MB-436, 72 h, MDAMB436, breast): 310 nM
IC50 (Homo sapiens, MDA-MB-468, 72 h, MDAMB468, breast): 290 nM
IC50 (Homo sapiens, MG-63, 72 h, MG63, bone): 380 nM
IC50 (Homo sapiens, MHH-ES-1, 72 h, MHHES1, bone): 720 nM
IC50 (Homo sapiens, MIA PaCa-2, 72 h, MIAPACA2, pancreas): 540 nM
IC50 (Homo sapiens, MINO, hematological): 80 nM
IC50 (Homo sapiens, MV4-11, 72 h, MV4-11, hematological): 570 nM
IC50 (Homo sapiens, NCI-H23, 72 h, NCI-H23, lung): 330 nM
IC50 (Homo sapiens, NCI-H82, 72 h, NCIH82, lung): 2530 nM
IC50 (Homo sapiens, NCI-H292, 72 h, NCIH292, lung): 280 nM
IC50 (Homo sapiens, NCI-H460, 72 h, NCIH460, ung): 420 nM
IC50 (Homo sapiens, OVCAR-3, 72 h, OVCAR3, ovary): 380 nM
IC50 (Homo sapiens, OVCAR-4, 72 h, OVCAR4, ovary): 1050 nM
IC50 (Homo sapiens, PANC-1, 72 h, PANC1, pancreas): 1150 nM
IC50 (Homo sapiens, PLC-PRF-5, 72 h, PLCPRF5, liver): 2160 nM
IC50 (Homo sapiens, Panc1005, 72 h, PANC1005, pancreas): 430 nM
IC50 (Homo sapiens, Ramos, hematological): 110 nM
IC50 (Homo sapiens, SAOS-2, 72 h, SAOS2, bone): 80 nM
IC50 (Homo sapiens, SF-268, 72 h, SF268, brain): 150 nM
IC50 (Homo sapiens, SF-295, 72 h, SF295, brain): 730 nM
IC50 (Homo sapiens, SK-BR-3, 72 h, SKBR3, breast): 190 nM
IC50 (Homo sapiens, SK-HEP1, 72 h, SKHEP1, liver): 120 nM
IC50 (Homo sapiens, SK-LMS-1, 72 h, SKLMS1, uterus): 1350 nM
IC50 (Homo sapiens, SK-MEL-5, 72 h, SKMEL5, skin): 3650 nM
IC50 (Homo sapiens, SK-MEL-28, 72 h, SKMEL28, skin): 1180 nM
IC50 (Homo sapiens, SK-N-AS, SKNAS, brain): 1410 nM
IC50 (Homo sapiens, SK-N-SH, SKNSH, brain): > 50000 nM
IC50 (Homo sapiens, SK-OV-3, 72 h, SKOV3, ovary): 280 nM
IC50 (Homo sapiens, SNB-75, 72 h, SNB75, brain): 830 nM
IC50 (Homo sapiens, SU-DHL10, 72 h, SU-DHL-10, hematological): 360 nM
IC50 (Homo sapiens, SU-DHL-6, 72 h, SU-DHL-6, hematological): 330 nM
IC50 (Homo sapiens, SW-620, 72 h, SW620, colon): 650 nM
IC50 (Homo sapiens, TE-671, 72 h, TE671, muscle): 440 nM
IC50 (Homo sapiens, THP-1, 72 h, THP-1, hematological): 1230 nM
IC50 (Homo sapiens, U2OS, bone): 670 nM
IC50 (Homo sapiens, U-87 MG, U87MG, brain): 330 nM
IC50 (Homo sapiens, UMUC3, 72 h, UMUC3, bladder): 560 nM
IC50 (Homo sapiens, UO-31, 72 h, UO31, kidney): 150 nM
IC50 (Homo sapiens, WSU-NHL, hematological): 210 nM
IC50 (NCI-H358M, NCIH358M, lung): 50 nM
IC50 (PBMC, hematological): 1030 nM
IC50 (RD-ES, RDES, bone): 2200 nM
